Consider 2 molecules from patent publication US20220154296A1, “USE OF ANTI-PD-1 ANTIBODY IN PREPARATION OF MEDICAMENT FOR TREATING SOLID TUMORS” (Shanghai Junshi Biosciences Co., Ltd., priority 2019, published 2022).

Data set [1] concerns CT-26 cells. The data set can be described thus: Inhibitory effect on tumor growth in CT-26 cell-transplanted B-hPD-1 mice. Format: in vivo. The protocol: CT-26 cells were seeded subcutaneously on the right side of hPD-1 humanized female mice at a concentration of 2.5×10^5 cells/0.1 mL, and the mice were randomly grouped by tumor volume when tumors grew to about 93 mm^3 with 7 mice per group, for a total of 4 groups:
G1: Anti-KLH hIgG4 (1 mg/kg) negative control group;
G3: palbociclib (100 mg/kg);
The experiment was ended 11 days after the first administration. Tumor volume and body weight of mice were measured and recorded twice a week. At the end of the experiment, animals were euthanized and tumor growth inhibition (TGITv%) was calculated.

In data set [2] the test system is chemotherapy-refractory ESCC. The conditions noted are these: chemotherapy-refractory ESCC patients in China; cited from earlier work.

For the molecule `CC(=O)c1c(C)c2cnc(Nc3ccc(N4CCNCC4)cn3)nc2n(C2CCCC2)c1=O` [palbociclib, reference compound], in data set [1] (11 days after the first administration, toripalimab 1 mg/kg i.p., palbociclib 100 mg/kg orally), the “TGI (%)” value turned out to be 44.8%. In data set [1] (mean ± standard error, toripalimab 1 mg/kg i.p. twice a week, palbociclib 100 mg/kg orally once a day, 7 mice per group), the “Tumor volume 11 days after the first administration” value came out at 1550 ± 189 mm^3.

B1: SHR-1210: anti-PD-1 antibody SHR-1210, in clinical stage (antibody, chains of the INN, looked up, V domains shown)
VH: EVQLVESGGGLVQPGGSLRLSCAASGFTFSSYMMSWVRQAPGKGLEWVATISGGGANTYYPDSVKGRFTISRDNAKNSLYLQMNSLRAEDTAVYYCARQLYYFDYWGQGTTVTVSS
VL: DIQMTQSPSSLSASVGDRVTITCLASQTIGTWLTWYQQKPGKAPKLLIYTATSLADGVPSRFSGSGSGTDFTLTISSLQPEDFATYYCQQVYSIPWTFGGGTKVEIK
For the molecule B1, in data set [2], the Anti-tumor activity entry is “effective anti-tumor activity” and the Safety result is “controllable safety”.
